ChEMBL document CHEMBL1144151, “Two novel anti-emetic principles of Alpinia katsumadai” (1999)

Columns and labels:
Type in all cases: functional
Settings in all cases: route intraperitoneal
[1] = system: Gallus gallus; test: Anti-emetic activity against copper sulfate-induced emesis in 4 days old chicks assessed as inhibition of number of retching reflexes at 50 mg/kg, ip measured 10 mins after copper sulfate challenge
[2] = system: Gallus gallus; test: Anti-emetic activity against copper sulfate-induced emesis in 4 days old chicks assessed as inhibition of number of retching reflexes at 10 mg/kg, ip measured 10 mins after copper sulfate challenge
[3] = system: Gallus gallus; test: Anti-emetic activity against copper sulfate-induced emesis in 4 days old chicks assessed as inhibition of number of retching reflexes at 20 mg/kg, ip measured 10 mins after copper sulfate challenge

Compound | inhibition in vivo at 50 mg/kg [1] [%] | inhibition in vivo at 10 mg/kg [2] [%] | inhibition in vivo at 20 mg/kg [3] [%]
O=C(CCc1ccccc1)CC(/C=C/c1ccccc1)c1c(O)cc(/C=C/c2ccccc2)oc1=O (centres undefined) [KATSUMADAIN B] | 41.4 |  | 
O=C(CCc1ccccc1)C[C@@H]1C[C@@H](c2ccccc2)c2c(cc(/C=C/c3ccccc3)oc2=O)O1 [KATSUMADAIN A] | 50.2 | 8.8 | 14.5
